The values below are quoted from earlier work in patent publication US20240192198A1, “BIOMIMETIC LIPOSOMES AND METHODS OF MAKING AND USING THE SAME” (Worcester Polytechnic Institute, priority 2022, published 2024).

For the data set the following is noted: hydrophobicity; obtained from the National Library of Medicine, PubChem Database.

Turning to `Nc1nc2ncc(CNc3ccc(C(=O)N[C@@H](CCC(=O)O)C(=O)O)cc3)nc2c(=O)[nH]1` [Folic acid], the logP (usually a log measure of how a compound divides between an organic and an aqueous phase) is reported as −2.5.
